Measured values taken from ChEMBL document CHEMBL1201862, “PubChem BioAssay data set” (2004).
The source made the active and inactive calls. Unless noted, no cut-off for these calls is given here.

How the values were obtained:
[1] = Counterscreen for inhibitors of Trypanosoma brucei methionyl tRNA synthetase (MetRS): Luminescence-based cell-based high throughput dose response assay to identify compounds that are cytotoxic to Jurkat human T lymphocyte cells.; type: functional
[2] = target: T1, Methionyl-tRNA synthetase, putative (Trypanosoma brucei brucei, UniProt Q38C91); type: functional, Trypanosoma brucei brucei strain 927/4 GUTat10.1
[3] = target: T1, Methionyl-tRNA synthetase, putative; type: functional, Trypanosoma brucei brucei strain 927/4 GUTat10.1; remark: listed apart in the source
HeLa = assay: HeLa cell cytotoxicity, dose response, cytotoxicity control, ATP luminescence, cherry-pick samples (AID 687004); type: functional, cell-based; settings: Homo sapiens
Lethal factor = Lethal factor (Bacillus anthracis, UniProt P15917); assay: High-throughput multiplex microsphere dose response for inhibitors of toxin protease, specifically Lethal Factor protease, compounds from Powder Set 01.; type: functional, Bacillus anthracis str. A2012; settings: read-out: EC50_MICROM
[4] = target: T2, Botulinum neurotoxin type A (Clostridium botulinum (strain Hall / ATCC 3502 / NCTC 13319 / Type A), UniProt P0DPI1); assay: High-throughput multiplex microsphere dose response for inhibitors of toxin protease, specifically Botulinum neurotoxin light chain A protease, compounds from Powder Set 01.; type: functional, Clostridium botulinum A str. ATCC 3502; settings: read-out: EC50_MICROM
[5] = target: T2, Botulinum neurotoxin type A; assay: Confirmatory FRET assay using full length substrates for Botulinum neurotoxin light chain A protease, with Powder Set01.; type: functional
[6] = target: Botulinum neurotoxin type F (Clostridium botulinum, UniProt P30996); assay: High-throughput multiplex microsphere dose response for inhibitors of toxin protease, specifically Botulinum neurotoxin light chain F protease, compounds from Powder Set 01.; type: functional, Clostridium botulinum Bf; settings: read-out: EC50_MICROM
[7] = HepG2 cell cytotoxicity, dose response, cytotoxicity control, cherry-picks, set 5 (AID 1053118); type: functional, cell-based
[8] = A549 cell cytotoxicity, dose response, cytotoxicity control, cherry-picks, 26 µM top dose (AID 1053119); type: functional, cell-based
Beta-lactamase [9] = target: Beta-lactamase (Salmonella choleraesuis (strain SC-B67), UniProt Q5J463)
Beta-lactamase [10] = target: Beta-lactamase (Pseudomonas aeruginosa, UniProt Q79MP6);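 note: biochemical dose-response test of metallo-beta-lactamase enzyme inhibition, read out by epi-absorbance; purified recombinant IMP-1 metallo-beta-lactamase with nitrocefin as substrate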
Chain of Beta-lactamase (Pseudomonas aeruginosa, UniProt Q79MP6) (Q79MP6 whole entry): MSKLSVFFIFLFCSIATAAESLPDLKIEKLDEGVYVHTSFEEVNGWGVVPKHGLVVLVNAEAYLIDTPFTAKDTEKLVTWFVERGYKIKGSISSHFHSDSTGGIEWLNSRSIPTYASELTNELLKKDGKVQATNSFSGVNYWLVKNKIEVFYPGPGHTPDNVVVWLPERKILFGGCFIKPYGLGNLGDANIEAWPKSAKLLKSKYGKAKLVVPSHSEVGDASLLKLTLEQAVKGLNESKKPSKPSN

T1 sequence (Q38C91 whole entry): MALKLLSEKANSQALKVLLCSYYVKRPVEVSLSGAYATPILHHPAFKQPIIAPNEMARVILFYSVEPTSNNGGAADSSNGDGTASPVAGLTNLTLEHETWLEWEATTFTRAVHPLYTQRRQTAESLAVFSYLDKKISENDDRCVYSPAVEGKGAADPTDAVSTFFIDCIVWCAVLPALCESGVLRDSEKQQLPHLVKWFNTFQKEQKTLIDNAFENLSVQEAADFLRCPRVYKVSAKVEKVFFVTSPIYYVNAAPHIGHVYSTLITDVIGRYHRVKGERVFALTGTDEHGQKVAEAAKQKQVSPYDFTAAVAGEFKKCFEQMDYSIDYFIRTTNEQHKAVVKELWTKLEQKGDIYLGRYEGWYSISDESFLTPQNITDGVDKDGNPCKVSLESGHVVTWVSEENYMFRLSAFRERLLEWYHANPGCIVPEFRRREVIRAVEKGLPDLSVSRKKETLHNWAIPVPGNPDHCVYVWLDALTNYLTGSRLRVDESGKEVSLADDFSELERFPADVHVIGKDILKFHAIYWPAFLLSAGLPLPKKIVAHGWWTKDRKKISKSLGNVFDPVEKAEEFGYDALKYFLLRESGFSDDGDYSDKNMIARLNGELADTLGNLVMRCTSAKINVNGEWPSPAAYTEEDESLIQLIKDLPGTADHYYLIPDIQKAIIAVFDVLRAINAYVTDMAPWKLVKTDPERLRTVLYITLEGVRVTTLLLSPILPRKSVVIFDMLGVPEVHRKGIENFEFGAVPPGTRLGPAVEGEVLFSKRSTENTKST
T2 sequence (P0DPI1 2-448 limits assumed): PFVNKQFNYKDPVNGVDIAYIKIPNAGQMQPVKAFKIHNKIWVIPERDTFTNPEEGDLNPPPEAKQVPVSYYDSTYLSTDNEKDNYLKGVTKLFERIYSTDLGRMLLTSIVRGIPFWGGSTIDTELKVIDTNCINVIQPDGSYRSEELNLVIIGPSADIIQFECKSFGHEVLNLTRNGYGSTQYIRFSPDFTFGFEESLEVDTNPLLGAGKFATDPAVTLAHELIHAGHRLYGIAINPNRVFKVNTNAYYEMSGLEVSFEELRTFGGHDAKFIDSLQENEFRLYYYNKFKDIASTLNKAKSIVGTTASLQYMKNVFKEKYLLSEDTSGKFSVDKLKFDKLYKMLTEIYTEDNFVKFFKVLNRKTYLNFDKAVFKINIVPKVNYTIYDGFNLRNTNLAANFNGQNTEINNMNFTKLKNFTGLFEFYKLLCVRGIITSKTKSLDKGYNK
Chain of Lethal factor (P15917 whole entry): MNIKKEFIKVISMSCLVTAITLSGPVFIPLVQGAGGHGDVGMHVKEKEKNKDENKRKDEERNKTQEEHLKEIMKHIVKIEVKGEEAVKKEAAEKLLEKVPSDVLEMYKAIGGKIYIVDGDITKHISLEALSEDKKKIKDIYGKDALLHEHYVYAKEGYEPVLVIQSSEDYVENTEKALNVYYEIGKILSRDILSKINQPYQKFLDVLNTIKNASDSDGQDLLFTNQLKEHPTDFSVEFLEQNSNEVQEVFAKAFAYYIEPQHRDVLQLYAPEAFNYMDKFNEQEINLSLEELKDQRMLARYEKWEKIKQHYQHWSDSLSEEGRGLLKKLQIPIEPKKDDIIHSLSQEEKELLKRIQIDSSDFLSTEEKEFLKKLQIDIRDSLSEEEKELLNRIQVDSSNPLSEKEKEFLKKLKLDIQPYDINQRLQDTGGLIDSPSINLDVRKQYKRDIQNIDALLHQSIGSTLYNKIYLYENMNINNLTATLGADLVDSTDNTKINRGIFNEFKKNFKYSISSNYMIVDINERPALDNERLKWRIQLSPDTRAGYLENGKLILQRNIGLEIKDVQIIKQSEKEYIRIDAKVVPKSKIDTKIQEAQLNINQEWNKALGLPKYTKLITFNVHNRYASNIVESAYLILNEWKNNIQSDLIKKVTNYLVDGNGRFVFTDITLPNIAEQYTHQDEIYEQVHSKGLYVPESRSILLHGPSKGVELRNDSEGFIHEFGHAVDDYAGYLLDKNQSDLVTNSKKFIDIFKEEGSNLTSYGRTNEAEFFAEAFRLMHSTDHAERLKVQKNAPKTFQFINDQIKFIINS
Chain of Beta-lactamase (Salmonella choleraesuis (strain SC-B67), UniProt Q5J463) (Q5J463 whole entry): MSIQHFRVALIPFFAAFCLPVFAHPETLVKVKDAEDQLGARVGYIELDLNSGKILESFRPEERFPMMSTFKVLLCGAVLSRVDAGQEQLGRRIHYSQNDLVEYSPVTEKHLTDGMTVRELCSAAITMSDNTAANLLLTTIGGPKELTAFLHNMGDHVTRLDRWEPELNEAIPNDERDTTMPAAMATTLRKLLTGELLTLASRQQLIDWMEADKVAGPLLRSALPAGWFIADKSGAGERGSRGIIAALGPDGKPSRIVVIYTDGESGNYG
Chain of Botulinum neurotoxin type F (P30996 1-436 limits assumed): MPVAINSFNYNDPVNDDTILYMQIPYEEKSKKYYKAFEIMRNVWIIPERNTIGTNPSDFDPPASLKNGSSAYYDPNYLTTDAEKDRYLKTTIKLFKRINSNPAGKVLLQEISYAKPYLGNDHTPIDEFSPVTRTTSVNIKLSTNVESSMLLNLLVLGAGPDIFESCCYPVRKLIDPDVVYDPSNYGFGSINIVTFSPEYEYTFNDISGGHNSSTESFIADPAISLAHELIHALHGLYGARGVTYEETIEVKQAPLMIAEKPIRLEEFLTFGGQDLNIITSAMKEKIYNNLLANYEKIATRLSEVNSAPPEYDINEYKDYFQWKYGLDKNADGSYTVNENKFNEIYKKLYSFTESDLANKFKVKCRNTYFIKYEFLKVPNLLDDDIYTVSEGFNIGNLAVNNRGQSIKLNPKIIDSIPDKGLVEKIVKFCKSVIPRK

Q: With O=C(Nc1ccccc1)Nc1nnc(CSCc2ccccc2Cl)s1 as the compound, how does the IC50 [1] read?
A: 27.7 µM (inactive)

Q: What about the IC50 [2] of the same compound?
A: 46.7 µM (inactive)

Q: What about the IC50 [3] of the same compound?
A: 6.26 µM (active)

Q: Which AC50 (HeLa) does the source give for C[C@@H]1CN([C@@H](C)CO)C(=O)c2cc(NS(=O)(=O)c3cn(C)cn3)ccc2O[C@@H](C)CCCCO[C@@H]1CN(C)Cc1ccc(C(F)(F)F)cc1 here?
A: 13 µM (active)

Q: For Clc1ccc(-c2cn3nc(-c4ccccc4)c(-c4ccccc4)nc3n2)cc1, which EC50 (Lethal factor) is on record?
A: 1.6 µM (active)

Q: What about the EC50 [4] of the same compound?
A: 1 µM (active)

Q: What about the EC50 [5] of the same compound?
A: 2.4 µM (active)

Q: What about the EC50 [6] of the same compound?
A: 7.4 µM (active)

Q: With O=C(c1cccnc1)N1C[C@@H]2[C@H](c3ccccc31)[C@@H](CO)N2CC1CCCC1 as the compound, how does the AC50 [7] read?
A: > 52 µM (inactive)

Q: What about the AC50 [8] of the same compound?
A: > 52 µM (inactive)

Q: With COc1ccc(-c2occ(C(=O)O)c2C(=O)O)cc1 as the compound, how does the IC50 (Beta-lactamase [9]) read?
A: > 59.6 µM (inactive)

Q: What about the IC50 (Beta-lactamase [10]) of the same compound?
A: 23.5 µM (inactive)
